{"source": "patent US11029303B2", "about": "“PAH antibodies and uses thereof” (The Administrators of the Tulane Educational Fund, priority 2015, dated 2021)", "key": {"[1]": {"target": "T1, human aryl hydrocarbon receptor (AhR) (Homo sapiens, UniProt P35869)", "T1 construct": "host or cells: Saccharomyces cerevisiae strain YCM3 (derived from W303a), AhR and ARNT integrated on chromosome III under a galactose promoter", "T1 sequence (P35869 11-848)": "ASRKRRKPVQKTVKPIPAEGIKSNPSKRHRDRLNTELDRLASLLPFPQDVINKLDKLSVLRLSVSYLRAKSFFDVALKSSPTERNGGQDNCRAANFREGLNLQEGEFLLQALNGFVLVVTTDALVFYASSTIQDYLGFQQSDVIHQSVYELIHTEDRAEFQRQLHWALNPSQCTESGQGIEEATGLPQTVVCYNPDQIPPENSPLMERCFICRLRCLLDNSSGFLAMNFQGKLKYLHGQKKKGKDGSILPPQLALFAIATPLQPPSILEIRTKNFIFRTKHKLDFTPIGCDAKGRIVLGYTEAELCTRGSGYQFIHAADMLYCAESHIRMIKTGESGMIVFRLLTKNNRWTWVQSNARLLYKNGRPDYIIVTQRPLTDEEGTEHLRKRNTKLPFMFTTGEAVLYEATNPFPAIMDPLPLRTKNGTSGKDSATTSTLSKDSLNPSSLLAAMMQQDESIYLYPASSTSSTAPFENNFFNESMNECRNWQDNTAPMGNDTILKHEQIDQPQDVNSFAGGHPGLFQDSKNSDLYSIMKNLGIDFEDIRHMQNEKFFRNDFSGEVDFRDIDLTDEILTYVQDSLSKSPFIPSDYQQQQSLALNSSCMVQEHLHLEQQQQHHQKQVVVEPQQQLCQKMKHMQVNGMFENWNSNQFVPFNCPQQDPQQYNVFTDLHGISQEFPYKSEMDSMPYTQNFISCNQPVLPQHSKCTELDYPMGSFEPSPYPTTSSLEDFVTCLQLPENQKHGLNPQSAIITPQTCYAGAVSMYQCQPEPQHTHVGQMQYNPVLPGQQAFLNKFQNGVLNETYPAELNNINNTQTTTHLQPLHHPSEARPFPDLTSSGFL", "T1 sequence (P27540 whole entry partner)": "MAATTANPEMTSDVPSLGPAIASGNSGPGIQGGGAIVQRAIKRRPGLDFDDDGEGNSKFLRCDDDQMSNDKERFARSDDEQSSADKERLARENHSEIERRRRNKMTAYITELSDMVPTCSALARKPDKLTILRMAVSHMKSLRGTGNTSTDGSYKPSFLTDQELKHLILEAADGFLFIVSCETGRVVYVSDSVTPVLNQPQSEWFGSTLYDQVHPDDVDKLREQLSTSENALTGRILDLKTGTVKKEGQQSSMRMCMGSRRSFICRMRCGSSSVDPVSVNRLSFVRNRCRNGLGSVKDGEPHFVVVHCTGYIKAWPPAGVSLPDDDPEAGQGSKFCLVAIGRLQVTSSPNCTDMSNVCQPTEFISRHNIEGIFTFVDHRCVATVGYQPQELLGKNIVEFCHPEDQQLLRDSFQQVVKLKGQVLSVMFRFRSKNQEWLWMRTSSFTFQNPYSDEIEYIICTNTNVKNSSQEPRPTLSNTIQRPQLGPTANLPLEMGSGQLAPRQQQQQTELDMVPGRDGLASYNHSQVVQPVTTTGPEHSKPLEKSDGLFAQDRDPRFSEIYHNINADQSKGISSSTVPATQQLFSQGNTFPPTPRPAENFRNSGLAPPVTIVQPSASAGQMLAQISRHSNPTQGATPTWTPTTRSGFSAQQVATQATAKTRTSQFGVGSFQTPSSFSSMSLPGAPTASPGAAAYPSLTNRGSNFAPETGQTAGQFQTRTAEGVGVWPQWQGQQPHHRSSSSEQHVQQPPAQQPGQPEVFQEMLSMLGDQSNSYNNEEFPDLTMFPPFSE", "assay": "Yeast bioassay of human AhR activation (YCM3 yeast, LacZ reporter)", "type": "cell-based", "conditions": "for EC50: concentration inducing 50% of the activity of 100 μM phenanthrene, 18 hr, read-out: rEC50", "excerpt": "Cell culture. An engineered Saccharomyces cerevisiae yeast strain, YCM3, was used for the present study. YCM3 was derived from the W303a yeast strain and is made available to investigators through the American Type Culture Collection (ATCC, strain MYA-3637). Human Ah receptor and ARNT genes were inserted onto chromosome III under the control of galactose promoter. YCM3 was transformed with a LacZ reporter plasmid that is expressed upon interaction with ligand activated AHRC (FIG. 24). This modification process was described in a previous study (Fox et al., 2008). The yeast cells were maintained in a glucose-containing medium (0.67% yeast nitrogen base without amino acids, 2% glucose, supplemented with 0.01% uracil, adenine, leucine, and histidine), and the bioassay was performed in a galactose-containing medium (2% galactose substituted for glucose in the medium described herein). Medium components were purchased from Sigma Aldrich Chemical Company.\n(§1) Yeast bioassay. The YCM3 yeast cells were diluted into the galactose medium to a final A600 nm of 0.04, plated into 96-well plates at 200 μl/well, and treated with various concentrations of PAHs for 18 hr at 30° C. During this time, the human AhR and aryl hydrocarbon receptor nuclear translocator (ARNT) were expressed in the presence of galactose and activated by PAH ligands in the cell to form the aryl hydrocarbon receptor complex (AHRC). After 18 hrs of incubation, yeast cells were suspended by pipetting, a 25 μl aliquot from each well was transferred into another 96-well assay plate and mixed with 225 μl substrate solution (60 mM Na2HPO4, 40 mM NaH2PO4, 1 mM MgCl2, 10 mM KCl, 0.2% sarkosyl, 1 mM dithiothreitol, and 0.4 mg/ml ortho-nitrophenyl-β-galactoside; pH, 7.0). The assay plate was incubated for ˜5 min at 37° C. and then 100 μl of a 1M Na2CO3 solution was added to stop the reaction and enhance the yellow color. Cell densities were determined from the first 96-well plate by measuring A600 nm and the color intensities of LacZ reactions determined by A405 nm from the corresponding wells of the second plate.\nA450 sample is the measurement of a ligand-treated well at 405 nm absorbance and A450 empty is the measurement of a well that contains only medium and no cells. A600 sample is the measurement of yeast cell density of a ligand-treated well at 600 nm absorbance and A600 empty is the measurement of a well that contains only medium and no cells. Cell volume is the amount of cell suspension added per well in ml (for example 0.025 ml) and reaction time is the time period of the colorimetric reaction (for example 5 min). The lacZ units were calculated as a percentage relative to the positive control (β-naphthaflavone signal set as 100%), and the dose response curves were fitted using SlideWrite program (version 7.01, Advanced Graphics Software, Inc.) using the 2 parameter curve: y=m+a0*x/(a1+x) (2) where m=LacZDMSO value from the assay plate, a0=maximum effect and a1=half maximum effective concentrations (EC50).\nRelative EC50 and EC25 (rEC50 and rEC25) values were further introduced to compare potencies of various methylated phenanthrenes. rEC50 and rEC25 were defined as the concentrations of the total PAH at which the AhR was activated to 50% or 25% of the activation observed in the 100 μM phenanthrene control, respectively. The 100 μM concentration was chosen because it was the maximum that can be achieved in the assay. The rEC50 and rEC25 and the errors associated with these values were calculated from the fitted curves. Specifically, the LacZ value corresponding to 50% or 25% of this value was calculated according to the following equations: y(EC50)=[lacZ(100 uM Phen)+LacZ(1% DMSO)]/2 (3) y(EC25)=[lacZ(100 uM Phen)+3*LacZ(1% DMSO)]/4 (4)\nThese calculated y values and the a0 and a1 values from the curve fits were then used to solve for x in equation (2) above. These x values represent the mean of rEC50 or rEC25 from the fitted curve. […]"}, "YCM3 yeast cells": {"test_system": "YCM3 yeast cells", "assay": "Toxicity to yeast cells in the yeast bioassay (inhibition of cell accumulation)", "type": "cell-based, Saccharomyces cerevisiae", "conditions": "up to 100 μM", "experimental": "as §1, with “The assay plate was incubated for ˜5 min at 37° C. and then 100 μl of a 1M Na2CO3 solution was added to stop the reaction and enhance the yellow color.” left out\nDuring the induction process, YCM3 yeast cells were incubated with varying concentrations of phenanthrene and its methylated derivatives and their signaling activities were measured via a colorimetric substrate. […] Differences in cell growth at the end of the 18 hr incubation period were normalized by measuring each culture's absorbance at 600 nm."}, "[2]": {"conditions": "crystal; cited from earlier work"}, "marine fish": {"test_system": "marine fish", "conditions": "larvae of marine fish; cited from earlier work"}}, "data": [{"compound": "Cc1ccc2ccc3ccc(C)cc3c2c1", "note": "[3,6-DMP, 3,6-dimethylphenanthrene]", "values": [{"measurement": "rEC50 comparison (ANOVA post-test)", "setting": "[1]", "result": "significantly more potent that 4-MP"}, {"measurement": "rEC25 comparison (ANOVA post-test)", "setting": "[1]; 25% of the activity of 100 μM phenanthrene", "result": "significantly more potent than the 3-, 4- and 9-MPs"}, {"measurement": "response achieved in the assay", "setting": "[1]; dose-response curve up to 100 μM", "result": "up to 50%"}]}, {"compound": "Cc1cccc2c1ccc1ccccc12", "note": "[Clone 1-MP, 1-methylphenanthrene]", "values": [{"measurement": "concentration at which maximal response was reached", "setting": "[1]", "result": "~40", "unit": "µM"}, {"measurement": "EC50", "setting": "[1]", "result": 4, "unit": "µM"}, {"measurement": "Emax at 18 h", "setting": "[1]; human, 1 μM BNF set as 100%, read-out: maximal response", "result": 109, "unit": "%"}]}, {"compound": "Cc1ccc2c(ccc3ccccc32)c1", "note": "[Clone 2-MP, 2-methylphenanthrene]", "values": [{"measurement": "EC50", "setting": "[1]", "result": 4.6, "unit": "µM"}]}, {"compound": "Cc1ccc2ccc3ccccc3c2c1", "note": "[Clone 3-MP, 3-methylphenanthrene]", "values": [{"measurement": "EC50", "setting": "[1]", "result": 5.8, "unit": "µM"}]}, {"compound": "Cc1cc2ccccc2c2ccccc12", "note": "[Clone 9-MP, 9-methylphenanthrene]", "values": [{"measurement": "toxicity to the yeast cells", "setting": "YCM3 yeast cells", "result": "less toxic to the yeast cells"}]}, {"compound": "c1ccc2c(c1)ccc1ccccc12", "note": "[phenanthrene]", "values": [{"measurement": "toxicity to the yeast cells", "setting": "YCM3 yeast cells", "result": "less toxic to the yeast cells"}, {"measurement": "solubility lower than biphenyl", "setting": "[2]", "result": 1000, "unit": "fold"}]}, {"compound": "Cc1cccc2c1ccc1cc(C(C)C)ccc12", "note": "[retene, 7-isopropyl-1-methylphenanthrene]", "values": [{"measurement": "toxicity in vivo", "setting": "marine fish", "result": "greater toxicity than unsubstituted phenanthrene"}]}]}
